The results in this text go back to patent publication US20090093469A1, “Phenylaminopropanol Derivatives and Methods of Their Use” (WYETH, priority 2004, published 2009).

Where a name gives a salt, the structure may show the parent alone.

The target of the first assay is T1, hNET (Homo sapiens, UniProt P23975).
T1 construct: expressed in transfected cells
T1 sequence (P23975 whole entry): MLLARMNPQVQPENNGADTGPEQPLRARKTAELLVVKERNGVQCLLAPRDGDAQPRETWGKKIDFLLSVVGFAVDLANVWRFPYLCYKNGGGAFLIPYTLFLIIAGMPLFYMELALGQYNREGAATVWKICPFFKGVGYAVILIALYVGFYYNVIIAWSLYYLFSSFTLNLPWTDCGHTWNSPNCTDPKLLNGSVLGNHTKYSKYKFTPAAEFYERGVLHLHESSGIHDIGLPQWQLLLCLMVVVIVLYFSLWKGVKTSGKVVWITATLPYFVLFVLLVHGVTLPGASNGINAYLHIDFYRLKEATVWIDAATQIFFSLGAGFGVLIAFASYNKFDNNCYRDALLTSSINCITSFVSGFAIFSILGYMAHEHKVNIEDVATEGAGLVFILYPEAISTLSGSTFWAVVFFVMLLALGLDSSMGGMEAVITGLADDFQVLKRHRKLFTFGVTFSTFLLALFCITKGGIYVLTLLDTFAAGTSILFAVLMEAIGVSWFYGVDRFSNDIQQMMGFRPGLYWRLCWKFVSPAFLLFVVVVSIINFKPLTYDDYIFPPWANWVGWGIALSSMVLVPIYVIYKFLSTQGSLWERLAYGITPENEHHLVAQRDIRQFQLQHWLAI
Briefly: Norepinephrine (NE) uptake assay in MDCK-Net6 cells stably transfected with human hNET. The assay is classed as cell-based. Particulars: MDCK-Net6, read-out: % Inhibition @ 1 μM (hNET).
As usually defined, the inhibition is the percentage by which the read-out fell short of the control. Take `CNC[C@@H](O)[C@H](c1cccc(F)c1)n1ccc2cc(F)ccc21` [Example 85, (1S,2R)-1-(5-fluoro-1H-indol-1-yl)-1-(3-fluorophenyl)-3-(methyl-amino)propan-2-ol hydrochloride]: the inhibition at 1 µM turned out to be 97.4%.
Turning to `CNC[C@@H](O)[C@H](c1cccc(F)c1)n1ccc2cc(C)ccc21` [Example 92, ((1S,2R)-1-(3-fluorophenyl)-3-(methylamino)-1-(5-methyl-1H-indol-1-yl)propan-2-ol hydrochloride], the inhibition at 1 µM turned out to be 85.8%.
Still for that read-out and setting: as for `CNC[C@@H](O)[C@H](c1cccc(F)c1)n1ccc2c(C)cccc21` [Example 96, ((1S,2R)-1-(3-fluorophenyl)-3-(methylamino)-1-(4-methyl-1H-indol-1-yl)propan-2-ol hydrochloride], the figure is 98.2%; as for `CCc1cn([C@@H](c2cccc(F)c2)[C@H](O)CNC)c2ccccc12` [Example 97, ((1S,2R)-1-(3-fluorophenyl)-3-(methylamino)-1-(3-ethyl-1H-indol-1-yl)propan-2-ol hydrochloride], 99.6%.

Still in this assay, the particulars now being: test compound 1 μM; [3H]NE uptake, MDCK-Net6 cells; read-out: % Inhibition @ 1 μM (hNET).
`CNC[C@@H](O)[C@H](c1cccc(F)c1)n1ccc2ccc(OC)cc21` [Example 81, (1S,2R)-1-(3-fluorophenyl)-1-(6-methoxy-1H-indol-1-yl)-3-(methyl-amino)propan-2-ol hydrochloride]: the inhibition at 1 µM turned out to be 58%.
The same measure, in the same setting: the result for `CNC[C@@H](O)[C@H](c1ccccc1)n1ccc2cccnc21` [Example 82, (1S,2R)-3-(methylamino)-1-phenyl-1-(1H-pyrrolo[2,3-b]pyridin-1-yl)propan-2-ol] reads 53.9%.
Still for that read-out and setting: as for `CNC[C@@H](O)[C@H](c1ccccc1)n1ccc2ccncc21` [Example 84, (1S,2R)-3-methylamino-1-phenyl-1-(1H-pyrrolo[2,3-c]pyridin-1-yl) propan-2-ol dihydrochloride], the figure is 40.9%; as for `CNC[C@@H](O)[C@H](c1cccc(F)c1)n1ccc2ccncc21` [Example 86, (1S,2R)-3-methylamino-1-(3-fluorophenyl)-1-(1H-pyrrolo[2,3-c]pyridin-1-yl) propan-2-ol dihydrochloride], 52.7%.
Same read-out and setting: the result for `CNC[C@@H](O)[C@H](c1ccccc1)N1CCc2cc(Cl)ccc21` [Example 87, (1S,2R)-1-(5-chloro-2,3-dihydro-1H-indol-1-yl)-3-(methylamino)-1-phenylpropan-2-ol hydrochloride] reads 99.7%.
`CNC[C@@H](O)[C@H](c1ccccc1)n1ccc2ccc(C)cc21` [Example 90, (1S,2R)-3-(methylamino)-1-(6-methyl-1H-indol-1-yl)-1-phenylpropan-2-ol hydrochloride]: the inhibition at 1 µM was 73.1%.
Take `CNC[C@@H](O)[C@H](c1ccccc1)n1ccc2cccc(C)c21` [Example 91, (1S,2R)-3-(methylamino)-1-(7-methyl-1H-indol-1-yl)-1-phenylpropan-2-ol hydrochloride]: the inhibition at 1 µM was 90.8%.
`CNC[C@@H](O)[C@H](c1ccccc1)n1ccc2c(C)cccc21` [Example 94, (1S,2R)-3-(methylamino)-1-(4-methyl-1H-indol-1-yl)-1-phenylpropan-2-ol hydrochloride]: the inhibition at 1 µM stood at 94.9%.
For `CNC[C@@H](O)[C@H](c1ccccc1)n1ccc2cc(C)ccc21` [Example 95, (1S,2R)-3-(methylamino)-1-(5-methyl-1H-indol-1-yl)-1-phenylpropan-2-ol hydrochloride], the inhibition at 1 µM came out at 97.6%.
Same read-out and setting: the result for `CNC[C@@H](O)[C@H](c1cccc(F)c1)n1cc(-c2ccccc2)c2ccccc21` [Example 98, ((1S,2R)-1-(3-fluorophenyl)-3-(methylamino)-1-(3-phenyl-1H-indol-1-yl)propan-2-ol hydrochloride] reads 99.1%.
Consider `CNC[C@@H](O)[C@H](c1ccccc1)N1C(=O)C(C)(C)c2cccc(F)c21` [Example 99, 7-fluoro-1-[(1S,2R)-2-hydroxy-3-(methylamino)-1-phenylpropyl]-3,3-dimethyl-1,3-dihydro-2H-indol-2-one hydrochloride], for which the inhibition at 1 µM stood at 98.1%.
The same measure, in the same setting: as for `CNC[C@@H](O)[C@H](c1ccccc1)N1C(=O)C(C)(C)c2ccccc21` [Example 100, 1-[(1S,2R)-2-hydroxy-3-(methylamino)-1-phenylpropyl]-3,3-dimethyl-1,3-dihydro-2H-indol-2-one hydrochloride], the figure is 94.2%.
Regarding `CNC[C@@H](O)[C@H](c1cccc(F)c1)N1C(=O)C(C)(C)c2cccc(F)c21` [Example 101, 7-fluoro-1-[(1S,2R)-1-(3-fluorophenyl)-2-hydroxy-3-(methylamino)propyl]-3,3-dimethyl-1,3-dihydro-2H-indol-2-one hydrochloride], the inhibition at 1 µM worked out at 98.6%.
For `CNC[C@@H](O)[C@@H](c1cccs1)n1ccc2ccccc21` [Example 102, (1S,2R)-1-(1H-indol-1-yl)-3-(methylamino)-1-(2-thienyl)propan-2-ol hydrochloride], the inhibition at 1 µM was 95.3%.
Same read-out and setting: the result for `CNC[C@@H](O)[C@H](c1cccs1)n1ccc2ccccc21` [Example 103, (1R,2R)-1-(1H-indol-1-yl)-3-(methylamino)-1-(2-thienyl)propan-2-ol hydrochloride] reads 86.1%; that for `CNC[C@@H](O)[C@H](c1ccccc1)N1C(=O)C2(CCCCC2)c2ccccc21` [Example 104, 1′-[(1S,2R)-2-hydroxy-3-(methylamino)-1-phenylpropyl]spiro[cyclo-hexane-1,3′-indol]-2′(1′H)-one hydrochloride], 99.4%; that for `O[C@@H]([C@@H]1CCCN1)[C@@H](c1cccc(F)c1)n1ccc2ccccc21` [Example 105, (1S,2R)-2-(3-fluorophenyl)-2-(1H-indol-1-yl)-1-[(2S)-pyrrolidin-2-yl]ethanol hydrochloride], 92.6%.
On to `O[C@H]([C@@H]1CCCN1)[C@H](c1cccc(F)c1)n1ccc2ccccc21` [Example 106, (1R,2S)-2-(3-fluorophenyl)-2-(1H-indol-1-yl)-1-[(2S)-pyrrolidin-2-yl]ethanol hydrochloride], for which the inhibition at 1 µM was 85.8%.
Still for that read-out and setting: the result for `CNC[C@@H](O)[C@H](c1ccccc1)N1C(=O)C2(CCC2)c2ccccc21` [Example 107, 1′-[(1S,2R)-2-hydroxy-3-(methylamino)-1-phenylpropyl]spiro[cyclo-butane-1,3′-indol]-2′(1′H)-one hydrochloride] reads 96.6%; that for `CNC[C@@H](O)[C@H](c1ccccc1)N1C(=O)C2(CCCC2)c2ccccc21` [Example 108, 1′-[(1S,2R)-2-hydroxy-3-(methylamino)-1-phenylpropyl]spiro-[cyclopentane-1,3′-indol]-2′(1′H)-one hydrochloride], 98.7%; that for `CNC[C@@H](O)[C@H](c1ccccc1)N1C(=O)C2(CC2)c2ccccc21` [Example 109, 1′-[(1S,2R)-2-hydroxy-3-(methylamino)-1-phenylpropyl]spiro-[cyclopropane-1,3′-indol]-2′(1′H)-one hydrochloride], 94.7%.
Same read-out and setting: as for `CNC[C@@H](O)[C@H](c1ccccc1)N1C(=O)C(C)(C)c2cc(F)ccc21` [Example 110, 5-fluoro-1-[(1S,2R)-2-hydroxy-3-(methylamino)-1-phenylpropyl]-3,3-dimethyl-1,3-dihydro-2H-indol-2-one hydrochloride], the figure is 86.4%; as for `CNC[C@@H](O)[C@H](c1ccccc1)N1C(=O)C2(CCCCC2)c2cccc(F)c21` [Example 112, 7′-fluoro-1′-[(1S,2R)-2-hydroxy-3-(methylamino)-1-phenylpropyl]-spiro[cyclohexane-1,3′-indol]-2′(1′H)-one hydrochloride], 100%; as for `CNC[C@@H](O)[C@H](c1ccccc1)N1C(=O)C2(CCCCC2)c2cc(Br)ccc21` [Example 113, 5′-bromo-1′-[(1S,2R)-2-hydroxy-3-(methylamino)-1-phenylpropyl]-spiro[cyclohexane-1,3′-indol]-2′(1′H)-one hydrochloride], 99.7%.
On the same count and under the same terms, the result for `CNC[C@@H](O)[C@H](c1cccc(F)c1)n1cc(-c2ccccc2F)c2ccccc21` [Example 114, (1S,2R)-1-(3-fluorophenyl)-1-[3-(2-fluorophenyl)-1H-indol-1-yl]-3-(methylamino)propan-2-ol hydrochloride] reads 100%; that for `CNC[C@@H](O)[C@H](c1cccc(F)c1)n1cc(-c2ccc(Cl)c(Cl)c2)c2ccccc21` [Example 115, (1S,2R)-1-[3-(3,4-dichlorophenyl)-1H-indol-1-yl]-1-(3-fluorophenyl)-3-(methylamino)propan-2-ol hydrochloride], 23.9%; that for `CNC[C@@H](O)[C@H](c1cccc(F)c1)n1cc(-c2cccc(F)c2)c2ccccc21` [Example 116, (1S,2R)-1-(3-fluorophenyl)-1-[3-(3-fluorophenyl)-1H-indol-1-yl]-3-(methylamino)propan-2-ol hydrochloride], 97.3%.
As to `CNC[C@@H](O)[C@H](c1ccccc1)n1cc(C)c2cc(F)ccc21` [Example 117, (1S,2R)-1-(5-fluoro-3-methyl-1H-indol-1-yl)-3-(methylamino)-1-phenylpropan-2-ol hydrochloride], the inhibition at 1 µM worked out at 95.3%.
Still for that read-out and setting: the result for `CNC[C@@H](O)[C@H](c1ccccc1)n1cc(C)c2cc(Cl)ccc21` [Example 119, (1S,2R)-1-(5-chloro-3-methyl-1H-indol-1-yl)-3-(methylamino)-1-phenylpropan-2-ol hydrochloride] reads 96.3%; that for `Cc1cn([C@@H](c2ccccc2)[C@H](O)CN)c2ccc(Cl)cc12` [Example 120, (1S,2R)-3-amino-1-(5-chloro-3-methyl-1H-indol-1-yl)-1-phenylpropan-2-ol hydrochloride], 68.6%.
On the same count and under the same terms, as for `CNC[C@@H](OC)[C@H](c1ccccc1)n1cc(C)c2cc(Cl)ccc21` [Example 121, [(2R,3S)-3-(5-chloro-3-methyl-1H-indol-1-yl)-2-methoxy-3-phenylpropyl]methylamine], the figure is 21.2%.
